Values of other authors in US20230404934A1, “ON DEMAND AND LONG-TERM DRUG DELIVERY FROM DEGRADABLE NANOCAPSULES” (University of Maryland, Baltimore County, priority 2020, published 2023).

Conditions: topical to the eye

## Cc1ccc(=O)n(-c2ccccc2)c1 [pirfenidone, 5-methyl-1-phenylpyridin-2-one]
  amount in the back of the eye after topical administration: no measurable amounts in the back of the eye
  washout from the eye after topical administration: washes out very quickly, within minutes
